PubChem BioAssay AID1417 (Emory University Molecular Libraries Screening Center, 2008)

molecular target: Induced myeloid leukemia cell differentiation protein Mcl-1 (Homo sapiens) (UniProt Q07820); experiment: Mcl-1/Noxa binding inhibitor potency, dose response, biochemical, TR-FRET (AID 1417); conditions: Mcl-1/Noxa peptide interaction, cell-free TR-FRET (terbium/rhodamine), 2 h; measured here: absolute IC50
Sequence (Q07820 whole entry, looked up): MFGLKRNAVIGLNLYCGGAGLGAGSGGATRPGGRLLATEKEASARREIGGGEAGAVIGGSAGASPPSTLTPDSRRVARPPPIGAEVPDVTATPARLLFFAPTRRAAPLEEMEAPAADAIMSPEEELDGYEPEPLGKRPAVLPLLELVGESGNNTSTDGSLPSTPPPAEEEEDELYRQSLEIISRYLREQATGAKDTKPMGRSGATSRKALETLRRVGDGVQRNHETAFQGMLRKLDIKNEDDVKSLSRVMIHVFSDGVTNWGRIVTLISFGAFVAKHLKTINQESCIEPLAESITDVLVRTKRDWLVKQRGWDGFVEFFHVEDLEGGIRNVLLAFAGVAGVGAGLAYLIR

| Structure (SMILES) | IC50 [µM] |
| --- | --- |
| Cc1ccc(-c2cc(C(=O)NCCCn3ccnc3)c3cc(Br)ccc3n2)o1 | > 54 |
| CN1c2ccccc2N(C)C1(C)c1ccccc1 | 1.12 |
| Cc1cccc(C(=O)NC(=S)NNC(=O)c2ccc(Cl)cc2)c1 | > 54 |
| CC(/C=N/NC(=O)c1cc(-c2ccc3ccccc3c2)n[nH]1)=C\c1ccco1 | 4.91 |
| O=C(Cc1cccs1)N/N=C/C=C\c1ccco1 | > 54 |
| CCOC(=O)C1CCN(c2nc(N)c3c(N)nc(SCC(=O)O)cc3c2C#N)CC1 | < 0.4 |
| O=C(Nc1cccc(S(=O)(=O)NC2=NCCC2)c1)c1cc(-c2ccco2)nc2ccccc12 | < 0.4 |
| Cc1cc(=O)oc2cc(OCc3ccc(C(=O)OCC(=O)Nc4ccc(N(C)C)cc4)cc3)ccc12 | < 0.4 |
| CN(C)c1ccc(/C=N/NC(=O)c2cccc(C(=O)N/N=C/c3ccc(N(C)C)cc3)n2)cc1 | < 0.4 |
| O=C1NC(=Nc2ccccc2)S/C1=C\C=C\c1ccco1 | < 0.4 |
| COc1ccc(OC)c2c1C(=O)C(Cl)=C(Cl)C2=O | < 0.4 |
| CCN1C(=O)/C(=C\c2ccc(-c3ccc([N+](=O)[O-])cc3OC)o2)SC1=Nc1cccc(C(=O)O)c1 | < 0.4 |
| Cc1[nH]n(-c2ncc(-c3ccc(Cl)cc3)s2)c(=O)c1C(c1ccc(Cl)cc1)C(C#N)C#N (stereo unspecified) | 1.67 |
| COc1cccc(/C=N/Nc2ncnc3c2[nH]c2ccc(C)cc23)c1OC | 4.21 |
| Cc1ccc(-c2nc3c(c(=O)[nH]c(=O)n3Cc3ccccc3)n2C)o1 | < 0.4 |
| Cc1cc(-c2nc3c4c5c(sc4[nH]c(=O)n3n2)CCC5)c(C)o1 | < 0.4 |
| O=C(O)c1ccc(N/N=C/c2ccc(-c3ccc(Cl)cc3Cl)o2)cc1 | 4.36 |
| C=C(C)C(=O)Nc1cccc(C2=NOC3(C2)C[C@@H](C(N)=O)N(C(=O)c2ccc(Cl)cc2)C3)c1 (stereo partly specified) | < 0.4 |
| Cc1ccc(/C=C/C(=O)NCc2ccccn2)o1 | 4.93 |
| CC(C(=O)Nc1cc([N+](=O)[O-])ccc1Cl)N1CCN(c2ccc(O)cc2)CC1 (stereo unspecified) | > 54 |
| COc1ccc(N2CCC(CNC(=O)Nc3ccc(Cl)cc3)C2)cc1 (stereo unspecified) | 51.7 |
| Cc1ccc(NC(=O)CN2C(=O)N/C(=C/c3cccn3-c3ccc(C(=O)O)cc3)C2=O)cc1 | > 54 |
| Cc1cc(C(=O)N/N=C/c2ccc(O)c([N+](=O)[O-])c2)c(C)n1-c1ccc(F)cc1 | 2.33 |
| CCc1nc(Nc2ccc(N3CCN(C(C)=O)CC3)cc2)c2oc3ccccc3c2n1 | > 54 |
| CCCOc1ccc(Cc2nn3c(=O)/c(=C/c4ccco4)sc3nc2=O)cc1 | > 54 |
| Cc1cc(N/N=C/c2ccc(O)c(C)c2O)nc(-c2ccccc2O)n1 | 3.66 |

| Structure (SMILES) | IC50 [µM] |
| --- | --- |
| CCN(CC)c1nc2c3c(nc4c(c3c1C#N)CC(=O)N4c1ccc(Cl)cc1)NC(C)=N2 | 3.19 |
| Cc1[nH]n(-c2ncc(-c3ccccc3)s2)c(=O)c1C(c1ccc(Cl)cc1)C(C#N)C#N (stereo unspecified) | 12.2 |
| CCn1c(SCc2nc3sc(C(=O)O)c(C)c3c(=O)[nH]2)nc2ccccc21 | 3.32 |
| O=C(O)c1ccccc1N/N=C/c1c(Sc2nnnn2-c2ccccc2)nc2ccccn2c1=O | < 0.4 |
| O=C(Nc1nccs1)c1cccc(N2C(=O)c3cccc4c([N+](=O)[O-])ccc(c34)C2=O)c1 | > 54 |
| O=C(O)c1cccc(-c2ccc(/C=c3/sc4nc5ccccc5n4c3=O)o2)c1 | 1.02 |
| CN(C(=O)COC(=O)c1cc(-c2ccco2)nc2ccccc12)C1CCS(=O)(=O)C1 (stereo unspecified) | < 0.4 |
| Cc1nc(NC(=O)c2ccco2)sc1-c1csc(Nc2ccc(Cl)cc2Cl)n1 | 1.24 |
| CC(/C=C1\SC(=S)N(c2ccc(C(=O)O)cc2)C1=O)=C\c1ccccc1 | 2.81 |
| COc1cc(/C=C2\SC(=O)N(Cc3ccc(F)cc3)C2=O)cc([N+](=O)[O-])c1O | 7.01 |
| COc1cc(/C=N/NC(=O)c2ccc([N+](=O)[O-])cc2Cl)cc(Br)c1O | > 54 |
| CNc1ccc(Br)cc(C(=O)/C=C/c2ccc(Cl)cc2Cl)c1=O | 1.41 |
| COc1ccccc1C1NC=C([N+](=O)[O-])C=C1[N+](=O)[O-] (stereo unspecified) | > 54 |
| COc1ccc2nc(-n3c(O)c(C4=c5ccccc5=NC4=O)[nH]c3=S)sc2c1 | < 0.4 |
| O=C(O)CC(CCc1ccccc1)OC1OC(CO)C(O)C(O)C1O (stereo unspecified) | < 0.4 |
| COc1ccccc1C1C2=C(N=c3s/c(=C/c4cccc(OCC(=O)O)c4)c(=O)n31)c1ccccc1CC2 (stereo unspecified) | 2.15 |
| S=c1[nH]nc(-c2cc(-c3ccccc3)n[nH]2)n1/N=C/C(Br)=C/c1ccccc1 | 7.38 |
| Cc1ccc(/C=c2\sc3nc(-c4ccco4)nn3c2=O)o1 | 6.14 |
| COc1cccc(C(=O)Nc2ccc3nc(N4CCN(c5ncccn5)CC4)cc(C)c3c2)c1OC | 8.07 |
| CN(C)c1ccc(N=c2sc3ccccc3n2C)cc1 | < 0.4 |
| CN(C)c1ccc(NC(=O)c2cccc(N3C(=O)C4C5C=CC(C5)C4C3=O)c2)cc1 (stereo unspecified) | > 54 |
| Cc1ccc(NC(=O)c2cc(N3C(=O)C=CC3=O)ccc2Cl)cc1C | < 0.4 |
| Cc1ccc2c(c1Cl)NC(C(=O)O)C1CC(Sc3ccccc3[N+](=O)[O-])C(Cl)C21 (stereo unspecified) | 2.52 |
| CCCCn1c(-c2ccc(Cl)cc2)nc2c(=O)n(C)c(=O)[nH]c21 | > 54 |
| CC(C)c1ccc(Nc2nnc(SCC(=O)c3nnc(-c4ccccc4)o3)s2)cc1 | 1.92 |
| Oc1c(Br)cc(C=Nc2ccc3nc(-c4ccccc4)[nH]c3c2)c(O)c1Br | 0.594 |

| Structure (SMILES) | IC50 [µM] |
| --- | --- |
| Cc1ccc(N2C(=O)NC(=O)/C(=C\c3cnc(-c4ccccc4)nc3)C2=O)cc1 | 20.2 |
| Oc1ccc(-c2csc(Nc3ncccn3)n2)cc1O | < 0.4 |
| CCOC(=O)c1c(CSc2ccc(C)cc2)n(C)c2cc(Br)c(O)c(CN(C)C)c12 | 3.33 |
| Oc1ccc(N2CCN(c3ncnc4sc5c(c34)CCC5)CC2)cc1 | 6.63 |
| COc1cc(C(Nc2ccccn2)c2ccc3ccc(C)nc3c2O)cc(OC)c1O (stereo unspecified) | < 0.4 |
| CN(C)S(=O)(=O)c1cccc(-c2nn(-c3ccccc3)cc2/C=C2\SC(=S)N(CC(=O)O)C2=O)c1 | 4.28 |
| O=C(NC1CC1)c1cc(-c2ccco2)nc2ccccc12 | < 0.4 |
| CNC(=S)Nc1sc2c(c1C(=O)OC)CCC2 | 1.32 |
| COc1ccc(N2Cc3cccc(C(=O)O)c3C2=O)cc1 | 4.79 |
| O=C(O)CCCN1C(=O)/C(=C\c2ccc(-c3nc4ccccc4s3)o2)SC1=S | 1.12 |
| Cc1cc(N(CCO)CCO)ccc1C(c1ccc(N(CCO)CCO)cc1C)c1ccccc1Cl | 1.13 |
| Cc1ccc(N=Nc2c(N)[nH]n3c(=O)cc(-c4ccccc4)nc23)cc1 | 14 |
| O=C(O)c1cccc(NC2=C(Cl)C(=O)c3ccccc3C2=O)c1 | 3.79 |
| O=c1oc2ccccc2c2oc3cc(O)c(O)cc3c12 | < 0.4 |
| CN(C)c1ccc(NC(=O)Nc2cccc(Cl)c2)cc1 | < 0.4 |
| CN(C)c1ccc(NC(=O)c2ccc([N+](=O)[O-])cc2Cl)cc1 | > 54 |
| O=C1/C(=C/c2ccccn2)SC(=S)N1c1ccc(O)cc1 | 8.38 |
| CC(=O)c1ccc(NC(=O)CSc2nnc(-c3ccco3)c(-c3ccco3)n2)cc1 | 5.96 |
| Cc1nnc(NC(=O)COc2ccc3c(C)cc(=O)oc3c2)s1 | 5.88 |
| COc1cc(/C=C2\SC(=S)N(CC(=O)Nc3ccc(O)cc3)C2=O)cc(OC)c1OC | < 0.4 |
| Cc1cc(C)n2c(SC/C(O)=C(\C#N)c3nc4ccccc4[nH]3)nnc2n1 | < 0.4 |
| COc1cc(-c2ccc(Nc3ccccc3C(=O)O)c(OC)c2)ccc1Nc1ccccc1C(=O)O | < 0.4 |
| O=C(CSc1ccsc1[N+](=O)[O-])N1CCN(c2ccc(Cl)cc2)CC1 | 5.22 |
| C=CCc1c(C)nc(SCCC)[nH]c1=O | > 54 |
